pIC50: −log10 of the molar value.
These compounds were tested against T1, human CRTH2 receptor (Homo sapiens, UniProt Q9Y5Y4, V204A) (assay: CRTH2 receptor binding assay ([3H]PGD2 competition on whole transfected cells)). Conditions: competition binding with 0.1 nM [3H]PGD2, whole cells expressing CRTH2, 3 h at 4° C.
T1 construct: expressed in transfected cells; host or cells: COS-7 (transient transfection)
T1 sequence (Q9Y5Y4 1-395 V204A): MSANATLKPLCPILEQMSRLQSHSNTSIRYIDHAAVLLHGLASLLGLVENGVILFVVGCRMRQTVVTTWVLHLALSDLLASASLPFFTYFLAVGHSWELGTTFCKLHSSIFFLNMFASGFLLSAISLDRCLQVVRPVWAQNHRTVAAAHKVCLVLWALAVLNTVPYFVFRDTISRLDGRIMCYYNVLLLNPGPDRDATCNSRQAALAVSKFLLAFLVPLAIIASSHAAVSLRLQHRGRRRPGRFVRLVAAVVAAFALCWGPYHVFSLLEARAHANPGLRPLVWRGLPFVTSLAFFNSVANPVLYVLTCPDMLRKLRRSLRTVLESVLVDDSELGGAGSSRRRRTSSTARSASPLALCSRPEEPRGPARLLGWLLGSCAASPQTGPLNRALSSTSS
Description: Generation/origin of the cDNA Constructs. The coding sequence of the human CRTH2 receptor (genbank accession no NM_004778) was amplified by PCR from a human hippocampus cDNA library and inserted into the pcDNA3.1(+) expression vector (invitrogen) via 5′ HindIII and 3′ EcoRI. The sequence identity of the construct was verified by restriction endonuclease digests and sequencing in both directions on an ABI Prism (Applied Biosystems, Foster City, Calif.).
Cell Culture and Transfection. COS-7 cells were grown in Dulbecco's modified Eagle's medium (DMEM) 1885 supplemented with 10% fetal bovine serum, 100 units/ml penicillin, […] streptomycin, and kept at 37° C. in a 10% CO2 atmosphere. HEK293 cells were maintained in Minimum Essential medium (MEM) supplemented with 10% (v/v) heat inactivated fetal calf serum (HIFCS), 2 mM Glutamax™-I, 1% non essential amino acids (NEAA), 1% sodium pyruvate and 10 μg/ml gentamicin. For binding experiments, COS7 cells were transiently transfected with the CRTH2 receptor using a calcium phosphate-DNA coprecipitation method with the addition of chloroquine (as described by Holst B, Hastrup H, Raffetseder U, Martini L, Schwartz T W. J Biol. Chem. 2001 Jun. 8; 276(23):19793-9.)
Binding assay. 24 h after transfection COS-7 cells were seeded into 96 well plates at a density of 30.000 cells/well. Competition binding experiments on whole cells were then performed about 18-24 h later using 0.1 nM [^3H]PGD2 (NEN, 172 Ci/mmol) in a binding buffer consisting of HBSS (GIBCO) and 10 mM HEPES. Competing ligands were diluted in DMSO which was kept constant at 1% (v/v) of the final incubation volume. Total and nonspecific binding were determined in the absence and presence of 10 μM PGD2. Binding reactions were routinely conducted for 3 h at 4° C. and terminated by 2 washes (100 μl each) with ice cold binding buffer. Radioactivity was determined by liquid scintillation counting in a TOPCOUNTER (Packard) following over night incubation in Microscint 20. Stable HEK293 cells were seeded at a density of 30.000 cells/well 18-24 h prior to the binding assay which was performed essentially as described for COS7 cells above. Determinations were made in duplicates.
Curve analysis was performed with the GraphPadPrism software 3.0 (Graphpad Prism Inc., San Diego, USA) and IC50 values were calculated as a measure of the antagonistic potencies.
In the case of `O=C(CSCc1ccccc1)Nc1cccc(C(=O)Nc2ccccc2C(=O)O)c1` [B42], the pIC50 was > 6.30.
With `O=C(Nc1cccc(C(=O)Nc2ccccc2C(=O)O)c1)c1ccc(I)cc1` [B43] the pIC50 was > 6.30.
`O=C(Nc1ccc(O)cc1C(=O)O)c1cccc(NC(=O)c2ccco2)c1` [B44] was tested, and the pIC50 was 5.30 to 6.30.
`O=C(Nc1ccc(C(=O)Nc2ccccc2C(=O)O)cc1)c1ccc(Br)cc1` [B45] gave a pIC50 of 5.30 to 6.30.
In the case of `Cc1ccc(NS(=O)(=O)c2cccc(C(=O)Nc3ccccc3C(=O)O)c2)cc1` [B46], the pIC50 was 5.30 to 6.30.
`O=C(Nc1ccccc1C(=O)O)c1cccc(S(=O)(=O)Nc2ccccc2)c1` [B47] gave a pIC50 of 5.30 to 6.30.
In the case of `COc1ccc(NS(=O)(=O)c2cccc(C(=O)Nc3ccccc3C(=O)O)c2)cc1` [B48], the pIC50 was 5.30 to 6.30.
`O=C(Nc1ccccc1C(=O)O)c1ccc(Br)c(S(=O)(=O)NCc2ccccc2)c1` [B50] showed a pIC50 of 5.30 to 6.30.
Compound `COc1ccc(NS(=O)(=O)c2cc(C(=O)Nc3ccccc3C(=O)O)ccc2C)cc1` [B51] has a pIC50 of 5.30 to 6.30.
In the case of `Cc1ccc(C(=O)Nc2ccccc2C(=O)O)cc1S(=O)(=O)Nc1ccc(Br)cc1` [B52], the pIC50 was > 6.30.
`Cc1ccccc1NS(=O)(=O)c1cccc(C(=O)Nc2ccccc2C(=O)O)c1` [B53] gave a pIC50 of 5.30 to 6.30.
For `O=C(Nc1ccccc1C(=O)O)c1ccc(Br)c(S(=O)(=O)Nc2ccc(Br)cc2)c1` [B54], the pIC50 was > 6.30.
With `O=C(Nc1ccccc1C(=O)O)c1cccc(S(=O)(=O)Nc2ccc(Br)cc2)c1` [B55] the pIC50 was > 6.30.
`Cc1cccc(NS(=O)(=O)c2ccc(Cl)c(C(=O)Nc3ccccc3C(=O)O)c2)c1` [B57] showed a pIC50 of 5.30 to 6.30.
`O=C(Nc1ccccc1C(=O)O)c1cc(S(=O)(=O)Nc2ccc(Br)cc2)ccc1Cl` [B58] showed a pIC50 of 5.30 to 6.30.
In the case of `Cc1ccc(C(=O)Nc2ccccc2C(=O)O)cc1S(=O)(=O)Nc1ccc(I)cc1` [B59], the pIC50 was > 6.30.
With `COc1ccccc1NS(=O)(=O)c1cccc(C(=O)Nc2ccccc2C(=O)O)c1` [B60] the pIC50 was 5.30 to 6.30.
In the case of `CCOc1ccc(NS(=O)(=O)c2cccc(C(=O)Nc3ccccc3C(=O)O)c2)cc1` [B61], the pIC50 was 5.30 to 6.30.
In the case of `Cc1ccc(C(=O)Nc2ccccc2C(=O)O)cc1S(=O)(=O)Nc1cccc(Cl)c1` [B62], the pIC50 was > 6.30.
`Cc1ccc(C(=O)Nc2ccccc2C(=O)O)cc1S(=O)(=O)Nc1ccc(F)cc1` [B63] showed a pIC50 of 5.30 to 6.30.
`CCOc1ccc(NS(=O)(=O)c2cc(C(=O)Nc3ccccc3C(=O)O)ccc2C)cc1` [B64] gave a pIC50 of 5.30 to 6.30.
With `CC(=O)c1ccc(NS(=O)(=O)c2cc(C(=O)Nc3ccccc3C(=O)O)ccc2C)cc1` [B65] the pIC50 was < 5.30.
In the case of `O=C(Nc1ccccc1C(=O)O)c1cccc(S(=O)(=O)NC2CCCCC2)c1` [B66], the pIC50 was 5.30 to 6.30.
In the case of `O=C(Nc1ccccc1C(=O)O)c1cc(S(=O)(=O)N2CCOCC2)ccc1Cl` [B67], the pIC50 was < 5.30.
With `O=C(Nc1ccccc1C(=O)O)c1cccc(S(=O)(=O)N2CCOCC2)c1` [B68] the pIC50 was < 5.30.
Compound `CCN(CC)S(=O)(=O)c1cc(C(=O)Nc2ccccc2C(=O)O)ccc1Br` [B69] has a pIC50 of 5.30 to 6.30.
For `O=C(Nc1ccccc1C(=O)O)c1cc(S(=O)(=O)N2CCCCC2)c(Cl)cc1Cl` [B70], the pIC50 was > 6.30.
For `Cc1ccc(C(=O)Nc2ccccc2C(=O)O)cc1S(=O)(=O)N1CCOCC1` [B71], the pIC50 was 5.30 to 6.30.
`Cc1ccc(C(=O)Nc2ccccc2C(=O)O)cc1S(=O)(=O)N1CCCCC1` [B72] was tested, and the pIC50 was > 6.30.
`Cc1ccc(C(=O)Nc2ccccc2C(=O)O)cc1S(=O)(=O)NC1CCCCC1` [B73] showed a pIC50 of 5.30 to 6.30.
`O=C(Nc1ccccc1C(=O)O)c1cccc(S(=O)(=O)N2CCCC2)c1` [B74] was tested, and the pIC50 was < 5.30.
`Cc1ccc(C(=O)Nc2ccccc2C(=O)O)cc1S(=O)(=O)N1CCCCCC1` [B75] was tested, and the pIC50 was 5.30 to 6.30.
`CCN(CC)S(=O)(=O)c1cc(C(=O)Nc2ccccc2C(=O)O)ccc1OC` [B76] gave a pIC50 of 5.30 to 6.30.
Work on `O=C(Nc1ccccc1C(=O)O)c1cc(S(=O)(=O)N2CCCCCC2)ccc1Cl` [B77] yielded a pIC50 of 5.30 to 6.30.
`Cc1ccc(S(=O)(=O)N2CCOCC2)cc1C(=O)Nc1ccccc1C(=O)O` [B78] was tested, and the pIC50 was < 5.30.
Compound `O=C(Nc1ccccc1C(=O)O)c1cc(S(=O)(=O)N2CCCC2)ccc1Cl` [B79] has a pIC50 of 5.30 to 6.30.
`O=C(Nc1ccccc1C(=O)O)c1cc(S(=O)(=O)N2CCCC2)c(Cl)cc1Cl` [B80] gave a pIC50 of 5.30 to 6.30.
`O=C(Nc1ccccc1C(=O)O)c1cccc(S(=O)(=O)N2CCCCC2)c1` [B81] gave a pIC50 of 5.30 to 6.30.

Source: US20090105218A1, “CRTH2 Receptor Ligands For Therapeutic Use” (7TM PHARMA A/S, priority 2004, published 2009)
